From the METLIN SMRT retention time set (Domingo-Almenara et al. 2019) come the findings set out here.

A short description of the data set: gradient 5% acetonitrile 3 min, to 50% in 2 min, to 85% in 15 min, held 3 min, 100 µL/min. To be noted: column: Zorbax Extend-C18 2.1 x 50 mm; eluents: water / acetonitrile, 0.1% formic acid. The essentials: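 A Zorbax Extend-C18 column (2.1 × 50 mm, 1.8 μm) run at 100 μL/min with water and acetonitrile, both containing 0.1% formic acid, separated mixtures of ~100 pure standards. The HPLC was coupled to a quadrupole time-of-flight mass spectrometer operated in positive and negative ionization mode, with dead and dwell volumes of 40 μL and 900 μL. Each retention time was taken from a computationally picked adduct peak that was then manually inspected.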
`O=C(c1ccc(Cl)cc1)N1CCN(S(=O)(=O)c2cc3c4c(c2)CCC(=O)N4CCC3)CC1`: the RP-LC retention time came to 838 s.

Molecule `CCOC(=O)C1CCN(c2cc3c(cc2NC(=O)CC2CCCCC2)n(C)c(=O)c(=O)n3C)CC1` displayed an RP-LC retention time of 981 s.

With `O=C(Cc1ccccc1Cl)NCCn1cnc(-c2ccccc2)cc1=O`, the RP-LC retention time was found to be 715 s.

For `CCOc1ccccc1NC(=O)c1cc2c(=O)n(CC(C)C)c3ccccc3n2n1`, the RP-LC retention time is 1350 s.

For `COc1ccc(-c2cc(N3CCN(C(=O)Nc4ccc(OC)c(OC)c4)CC3)ncn2)cc1`, the RP-LC retention time came to 620 s.

`COCc1c(C(=O)O)nnn1-c1ccc(F)c(F)c1` returned an RP-LC retention time of 723 s.

`O=C(NCc1ccco1)c1ccc(Cn2nc(N3CCN(c4ccccc4)CC3)ccc2=O)o1` had an RP-LC retention time of 780 s.

In turn, `C=CCN1C(=O)C(C)(C)COc2cc(NS(=O)(=O)c3ccc(Cl)s3)ccc21` displayed an RP-LC retention time of 975 s.

The molecule `Cc1nc(N2CCOCC2)c2c(C(=O)Nc3cccc(F)c3)c(C)oc2n1` returned an RP-LC retention time of 817 s.

Regarding `N#CCN(c1ccc2c(c1)OCO2)S(=O)(=O)c1ccc2nncn2c1`, the RP-LC retention time was 692 s.

`Cc1nc(-c2cc(S(=O)(=O)N3CCCCC3C)c(C)s2)sc1C` (stereo not drawn) gave an RP-LC retention time of 1220 s.

Turning to `Cc1cc(Cl)ccc1NC(=O)N1CCN(C2=CC3=NCC(C)N3C=N2)CC1` (stereo not drawn), the RP-LC retention time was 814 s.

In the case of `COC(=O)C(Cc1ccccc1)NC(=O)Nc1cccn2c(C)nnc12` (stereo not drawn), the RP-LC retention time was found to be 685 s.

For the molecule `Cc1cc2c(cc1S(=O)(=O)N1CCCC1C(=O)N1CCc3ccccc31)OC(C)C(=O)N2` (stereo not drawn), the RP-LC retention time stood at 825 s.

`O=C(CCc1ccccc1)NC1CCN(c2cc(-c3ccccc3)[nH]n2)C1` (stereo not drawn) came in with an RP-LC retention time of 643 s.

With `O=C(C(=O)N1CCN(c2cccc(Cl)c2)CC1)c1c[nH]c2ccccc12`, the RP-LC retention time was 710 s.

Molecule `Cc1cc2nc(NC3=NCN(CCO)CN3)nc(C)c2cc1C` yielded an RP-LC retention time of 597 s.

The molecule `COc1cccc(-c2cc(C(N)=O)n(C)n2)c1` yielded an RP-LC retention time of 646 s.

For `CCN1CCN(C(=O)C2CCN(c3nc4cccnc4s3)CC2)CC1`, the RP-LC retention time came to 570 s.

In the case of `CC(=O)Nc1ccc(SCCCC(=O)Nc2ccc3c(c2)OCCO3)nn1`, the RP-LC retention time came out at 634 s.

In turn, `O=C(Cc1cccs1)N1CCN(S(=O)(=O)C2CC2)CC1` came in with an RP-LC retention time of 666 s.

In turn, `O=C(c1ccc(F)cc1)N1c2nc(-c3ccccc3)nn2C2(CCCCC2)[C@@H]2CCCC[C@@H]21` yielded an RP-LC retention time of 576 s.

`CCS(=O)(=O)N1CCc2ccc(NC(=O)c3cccs3)cc2C1` came in with an RP-LC retention time of 747 s.

With `COc1ccc(CN2C(=O)CN(C3CCCCC3)C(=O)C2c2cccs2)cc1` (stereo not drawn), the RP-LC retention time worked out at 915 s.

Molecule `c1ccc2c(c1)c(-c1noc(-c3ccncc3)n1)nn2CCN1CCCCC1` showed an RP-LC retention time of 642 s.

The molecule `O=C(/C=C/c1ccc(CN(CCO)CCc2c[nH]c3ccccc23)cc1)NO` gave an RP-LC retention time of 622 s.

`CCOc1ccc(NC(=O)N2CCC(n3cnc4ccc(Cl)cc4c3=O)CC2)cc1` gave an RP-LC retention time of 844 s.

For `Cc1nc(Nc2ccc(F)cn2)sc1C(=O)NCc1ccc(F)cc1`, the RP-LC retention time amounted to 832 s.

On to `CC(C)n1c(=O)sc2cc(S(=O)(=O)N3CCC(C(=O)NC4CCCCC4)CC3)ccc21`, for which the RP-LC retention time was determined as 935 s.

The molecule `CC(C)n1cnc2ccc(-c3noc(CCc4ccccc4)n3)cc21` displayed an RP-LC retention time of 797 s.

Molecule `O=C(Nc1ccc2c(c1)OCCO2)C1CCCN(c2ncc(-c3cccc(F)c3)cn2)C1` (stereo not drawn) showed an RP-LC retention time of 1040 s.

`CC1CC(C)CN(c2nccn3c(=O)n(CC(=O)Nc4ccc(F)cc4F)nc23)C1` (stereo not drawn) yielded an RP-LC retention time of 902 s.

As for `CC(NC(=O)C(=O)N1CCOCC1)C(c1cccs1)N1CCN(Cc2ccccc2)CC1` (stereo not drawn), the RP-LC retention time was 600 s.
